Data as given in ChEMBL document CHEMBL1140141 (J Nat Prod, 2008).

Columns and labels:
[1] = Inhibition of L-type calcium channel at 10 uM
[2] = target: hERG (KCNH2) (Homo sapiens, UniProt Q12809); assay: Inhibition of human ERG at 10 uM
[3] = target: T1, Alpha-1D adrenergic receptor (Homo sapiens, UniProt P25100); assay: Inhibition of cloned adrenergic Alpha-1D receptor
T1 sequence (P25100 whole entry): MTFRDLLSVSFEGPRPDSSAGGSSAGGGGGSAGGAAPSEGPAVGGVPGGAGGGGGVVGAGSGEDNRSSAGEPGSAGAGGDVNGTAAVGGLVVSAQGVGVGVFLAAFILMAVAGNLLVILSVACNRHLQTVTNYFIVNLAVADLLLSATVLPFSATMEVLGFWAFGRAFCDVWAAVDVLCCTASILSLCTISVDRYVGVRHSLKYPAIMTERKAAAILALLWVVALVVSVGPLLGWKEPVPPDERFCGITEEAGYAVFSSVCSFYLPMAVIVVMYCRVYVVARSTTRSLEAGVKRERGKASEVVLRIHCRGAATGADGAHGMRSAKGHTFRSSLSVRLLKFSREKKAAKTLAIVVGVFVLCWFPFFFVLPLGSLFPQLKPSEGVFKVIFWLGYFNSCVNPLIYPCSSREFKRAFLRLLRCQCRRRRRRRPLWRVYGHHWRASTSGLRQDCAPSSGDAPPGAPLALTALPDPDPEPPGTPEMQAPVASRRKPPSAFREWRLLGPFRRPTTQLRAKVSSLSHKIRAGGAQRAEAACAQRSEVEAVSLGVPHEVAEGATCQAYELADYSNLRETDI

[4] = target: T2, Alpha-2A adrenergic receptor (Homo sapiens) (UniProt P08913); assay: Displacement of [3H]MK912 from human cloned adrenergic alpha-2a receptor at 10 uM
T2 sequence (whole entry): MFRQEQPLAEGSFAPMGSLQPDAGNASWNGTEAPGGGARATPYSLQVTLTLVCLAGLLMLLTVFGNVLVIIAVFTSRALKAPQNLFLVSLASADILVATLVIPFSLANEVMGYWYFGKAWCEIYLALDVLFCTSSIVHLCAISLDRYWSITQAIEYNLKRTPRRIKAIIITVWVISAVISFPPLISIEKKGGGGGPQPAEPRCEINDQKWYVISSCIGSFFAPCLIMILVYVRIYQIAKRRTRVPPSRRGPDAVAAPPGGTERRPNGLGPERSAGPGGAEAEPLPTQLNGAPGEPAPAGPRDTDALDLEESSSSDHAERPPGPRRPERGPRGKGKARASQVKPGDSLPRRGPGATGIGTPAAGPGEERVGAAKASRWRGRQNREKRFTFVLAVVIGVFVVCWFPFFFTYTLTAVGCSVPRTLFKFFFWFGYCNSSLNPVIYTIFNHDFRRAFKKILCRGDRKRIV

[5] = target: T3, Alpha-2A adrenergic receptor (Homo sapiens, UniProt P08913); assay: Displacement of [3H]MK912 from human cloned adrenergic alpha-2a receptor
T3 sequence (P08913 whole entry): T2 sequence (whole entry)

[6] = target: Histamine H2 receptor (Cavia porcellus, UniProt P47747); assay: Displacement of [125I]-APT from histamine H2 receptor in brain of guinea pig; format: tissue-based
Histamine H2 receptor, sequence (P47747 whole entry, looked up): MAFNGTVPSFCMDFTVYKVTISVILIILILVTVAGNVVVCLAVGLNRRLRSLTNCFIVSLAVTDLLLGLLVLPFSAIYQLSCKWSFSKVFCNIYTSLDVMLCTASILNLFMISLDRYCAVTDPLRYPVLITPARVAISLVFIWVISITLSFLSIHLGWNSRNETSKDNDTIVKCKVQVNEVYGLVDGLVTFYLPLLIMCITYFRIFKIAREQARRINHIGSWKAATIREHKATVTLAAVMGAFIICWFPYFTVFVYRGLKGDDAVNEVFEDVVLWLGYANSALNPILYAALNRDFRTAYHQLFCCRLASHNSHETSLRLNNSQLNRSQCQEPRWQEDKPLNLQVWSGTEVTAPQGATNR

[7] = target: Histamine H3 receptor (Rattus norvegicus, UniProt Q9QYN8); assay: Displacement of [3H]SMT from histamine H3 receptor in forebrain of rat
Histamine H3 receptor, sequence (Q9QYN8 whole entry): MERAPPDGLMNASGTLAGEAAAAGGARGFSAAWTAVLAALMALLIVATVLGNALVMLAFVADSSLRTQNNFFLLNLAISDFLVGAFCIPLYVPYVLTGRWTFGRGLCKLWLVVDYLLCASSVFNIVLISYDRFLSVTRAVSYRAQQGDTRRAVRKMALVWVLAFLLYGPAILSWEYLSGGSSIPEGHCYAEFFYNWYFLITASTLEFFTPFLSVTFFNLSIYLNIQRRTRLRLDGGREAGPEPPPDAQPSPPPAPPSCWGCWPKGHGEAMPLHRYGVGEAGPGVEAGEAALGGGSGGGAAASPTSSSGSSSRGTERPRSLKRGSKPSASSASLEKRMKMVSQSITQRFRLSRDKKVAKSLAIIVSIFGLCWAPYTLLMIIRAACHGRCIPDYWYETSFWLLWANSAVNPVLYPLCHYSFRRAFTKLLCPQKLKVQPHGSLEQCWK

[8] = target: T4, Alpha-1D adrenergic receptor (Homo sapiens) (UniProt P25100); conditions: 10 uM
T4 sequence (whole entry): T1 sequence (P25100 whole entry)
Description: Inhibition of cloned adrenergic Alpha-1D receptor at 10 uM

[9] = target: Histamine H3 receptor (Rattus norvegicus) (UniProt Q9QYN8); conditions: 10 uM
Histamine H3 receptor (Rattus norvegicus), sequence (Q9QYN8 whole entry): as above
Description: Displacement of [3H]SMT from histamine H3 receptor in forebrain of rat at 10 uM

hERG (KCNH2), sequence (Q12809 whole entry): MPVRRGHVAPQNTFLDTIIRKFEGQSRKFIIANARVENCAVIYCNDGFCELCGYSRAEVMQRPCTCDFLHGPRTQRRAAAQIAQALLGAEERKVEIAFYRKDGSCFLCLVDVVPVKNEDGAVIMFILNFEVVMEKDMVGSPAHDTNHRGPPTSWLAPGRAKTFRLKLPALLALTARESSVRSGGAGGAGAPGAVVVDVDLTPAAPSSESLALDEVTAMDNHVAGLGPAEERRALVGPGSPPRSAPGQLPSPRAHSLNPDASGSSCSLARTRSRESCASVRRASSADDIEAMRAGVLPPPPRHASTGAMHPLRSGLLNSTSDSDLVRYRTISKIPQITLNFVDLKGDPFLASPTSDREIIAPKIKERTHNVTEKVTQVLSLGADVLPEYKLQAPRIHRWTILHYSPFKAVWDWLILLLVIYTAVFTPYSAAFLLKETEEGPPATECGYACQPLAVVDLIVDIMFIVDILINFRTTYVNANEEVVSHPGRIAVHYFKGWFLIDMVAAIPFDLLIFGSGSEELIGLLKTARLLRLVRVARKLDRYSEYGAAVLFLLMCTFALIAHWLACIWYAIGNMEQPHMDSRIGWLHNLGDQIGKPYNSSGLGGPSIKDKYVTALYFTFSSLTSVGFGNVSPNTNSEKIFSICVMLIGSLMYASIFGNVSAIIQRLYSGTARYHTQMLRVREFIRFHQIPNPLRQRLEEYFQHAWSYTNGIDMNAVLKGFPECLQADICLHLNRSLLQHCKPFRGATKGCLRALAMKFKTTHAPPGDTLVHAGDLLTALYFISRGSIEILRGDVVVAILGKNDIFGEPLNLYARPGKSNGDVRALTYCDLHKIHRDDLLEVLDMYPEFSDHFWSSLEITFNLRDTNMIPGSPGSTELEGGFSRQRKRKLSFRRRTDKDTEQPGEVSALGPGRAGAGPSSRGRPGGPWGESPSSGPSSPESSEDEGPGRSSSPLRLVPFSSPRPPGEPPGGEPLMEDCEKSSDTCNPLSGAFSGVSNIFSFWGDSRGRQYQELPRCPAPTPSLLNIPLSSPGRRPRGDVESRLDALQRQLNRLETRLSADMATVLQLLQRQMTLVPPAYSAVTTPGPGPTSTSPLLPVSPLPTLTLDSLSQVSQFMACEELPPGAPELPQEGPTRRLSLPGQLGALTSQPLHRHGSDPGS

CN(C)CCCOc1ccc(CCNC(=O)c2cc(Br)c[nH]2)cc1Br [DISPYRIN]
inhibition [1]: 50% | inhibition at 10 µM [2]: 50% | IC50 [3]: 560 nM | Ki [3]: 275 nM | inhibition [4]: 97% | IC50 [5]: 185 nM | Ki [5]: 69 nM | IC50 [6]: 1250 nM | Ki [6]: 1020 nM | IC50 [7]: 2350 nM | Ki [7]: 1040 nM | inhibition [8]: 91% | inhibition [9]: 91%
